This is an account of results in patent US11369665B2, “Anti-inflammatory peptides and composition comprising the same” (GemVax & KAEL Co., Ltd., priority 2012, dated 2022).

One test concerns IL-6. Briefly: IL-6 secretion measurement by ELISA in LPS-challenged RAW 264.7 cells. Format: cell-based. The protocol:
(§1) Raw 264.7 macrophage cell (KCBL, 40071) from Korea Cell Bank was maintained in Dulbecco's modified Eagle's medium (DMEM; PAA, Austria) containing 10% fetal bovine serum (FBS; GIBCO®), 100 unit/mL of streptomycin, and penicillin (Gibco Laboratories) at 37° C. with 5% CO2. Raw 264.7 cells were seeded into a 96-well plate at a density of 1×10^6 cells/mL and incubated overnight.
(§2) On the following day, the medium was replaced with fresh medium and 5 μg/mL of peptide (obtained as described in Experiment example 1) was added to the cells. After 30 min incubation of cells with the peptide 50 μL of LPS (to a final concentration of 1 μg/mL) was added, and cells were incubated for additional 24 hr. The experimental sample with the induction of inflammatory response was treated with 1 μg/mL mL lipopolysaccharide (LPS; SIGMA-ALDRICH®, USA) and control sample was treated with phosphate buffered saline (PBS; pH 7.2). The supernatant samples from each condition was collected in eppendorf tubes and subjected to further analysis.
To investigate the effect of PEP-1 on inhibiting proinflammatory cytokine production RAW 264.7 cell were pre-treated with PEP 1 at a concentration of 5 μg/mL challenged with LPS at a concentration of 1 μg/mL, and cells were further incubated for 24 hr. The supernatant samples containing cell culture medium was collected and analyzed for the cytokine levels using ELISA kits (eBioscience, San Diego).
96 wells plates were coated with 100 μL of capture antibodies (diluted in coating buffer to the concentration recommended by manufacturer's protocol) overnight at 4° C. Then, after washing the plates 5 times, 200 μL of assay diluents was added to each well and incubated for 1 hr at room temperature for blocking. […]
Following incubation with the secondary antibody, the plate was washed five times and incubated with 100 μL of avidin-HRP (BD Bioscience) for 30 min at room temperature. […] The reaction was stopped by adding 50 μl of 2N H2SO4 in each well The optical density at 450 nm was measured using a microplate reader. […]
On the technique in general: An ELISA detects its analyte on a solid surface through an enzyme-linked reagent.

The test system of another test is COX-2. Briefly: Western blot of expression level, LPS-stimulated cells. Format: cell-based. Conditions: LPS 1 μg/ml, PEP 1 5 μg/ml. The protocol: as §1, §2
(§3) Protein expression level was determined by Western blot analysis. Cells grown in PEP-1 containing medium were washed with PBS, treated with 0.05% trypsin-EDTA, and collected by centrifugation. The collected cells were dissolved in an appropriate volume of lysis buffer. Intracellular debris was pelleted by centrifugation, and equal amount of protein from each sample was separated by SDS-polyacrylamide gel electrophoresis. The separated protein was transferred to nitrocellulose membrane (Schleicherand Schuell, Keene, N.H., USA), then was tested for the antibody specific for each protein. The membrane was incubated with ECL (enhanced chemiluminoesence) solution ([…]®), exposed to X-ray, and the level of protein expression was analyzed according to the exposure level shown on the X-ray film.
(A western blot detects proteins with antibodies after separation by electrophoresis.)

For test [1], the system named is HMGB1. The test is described as above. Format: cell-based. As to conditions: LPS 1 μg/ml, PEP 1 5 μg/ml. As to the method:
as §1, §2, §3

A further test has as its system TNF-α. The test is described as above. Format: cell-based. Conditions: LPS 1 μg/ml, PEP 1 5 μg/ml. As to the method: as §1, §2, §3
A further test has as its system neural stem cells. Briefly: Co-treatment amyloid-β and PEP-1: proliferation (BrdU assay). Format: cell-based, rat. Conditions: 20 μM amyloid-β protein, co-treated 48 hours. The protocol: To determine whether PEP 1 has the effect of suppressing the neurotoxicity caused by amyloid-β protein, 20 μM amyloid-β protein and various concentrations of PEP-1 were co-treated for 48 hours. The cell viability and apoptosis were measured using MMT assay, CCK-8 assay, LDH assay and TUNEL assay, and neural stem cell proliferation by BrdU assay.
We also confirmed with BrdU assay that the decreased cell proliferation due to amyloid-β protein was restored when processed with PEP-1 (Refer to FIG. 10).

In test [2] the test system is HMGB1. Briefly: Western blot of HMGB1 in amyloid-β damaged neural stem cells. As to conditions: after the decrease by amyloid-β treatment, FIG. 15J. The format is cell-based, rat. From the text: HMGB1, a non-histone structure protein that binds to DNA, serves diverse roles within a cell; such as stabilizing nucleosome structure and regulating gene expression.
Setting [3] is: RAW 264.7 cells, LPS 1 μg/ml, PEP 1 5 μg/ml, 24 hr.

Consider EARPALLTSRLRFIPK [PEP-1], for which, in the test with IL-6 (setting [3]), the “cytokine IL-6 production % of control” value was 28% and the “cytokine IL-6 production inhibition %” value came to 72%. In the test with IL-6 (co-treatment with LPS), the “decrease of proinflammatory cytokine secretion (IL-6)” value is recorded as “more than 70%”. In addition, in the test with COX-2, the “COX-2 Cytokine Expression Level (band intensity) % of control” value is on record as 22%. For the same sequence, in the test with HMGB1 [1], the “HMGB1 Cytokine Expression Level (band intensity) % of control” value is on record as 30%. Further, the “TNF-α Cytokine Expression Level (band intensity) % of control” value in the test on TNF-α is 25%. In addition, the “cell proliferation decreased by amyloid-β (BrdU)” value in the test with neural stem cells is recorded as “restored”. Besides, the “HMGB1 in the cytoplasm of the nerve cells” value with HMGB1 [2] was “increase of HMGB1”.
